From paper PMC7155171, “Probing the Open Global Health Chemical Diversity Library for Multistage-Active Starting Points for Next-Generation Antimalarials” (ACS Infectious Diseases, 2020)
Read-outs that look alike come from different tables or passages of the source.

Legend:
[1] = tested on: P. falciparum Dd2 (PfLuc) line expressing firefly luciferase, asexual blood stage; assay: microbe, parasite or virus in culture; type: cell-based, Plasmodium falciparum; conditions: Plasmodium falciparum
P. falciparum Dd2 = assay: SYBR green I asexual blood stage proliferation assay (96 h); type: cell-based, Plasmodium falciparum; conditions: Plasmodium falciparum, DD2, 11-pt dose response, 96hr
[2] = DD2, read-out: CDD P. falciparum Luciferase ABS 11-pt Reconfirmation Dose Response (48hr): IC50 (μM), 11-pt dose response, 48hr
[3] = DD2, 8-pt dose response, 96hr, read-out: CDD P. falciparum Luciferase ABS 8-pt Reconfirmation Dose Response (96hr): IC50
[4] = DD2, 8-pt dose response, 96hr, read-out: CDD P. falciparum Luciferase ABS 8-pt Reconfirmation Dose Response (96hr): Maximum inhibition (%)
[5] = DD2, 11-pt dose response, 48hr, read-out: CDD P. falciparum Luciferase ABS 11-pt Reconfirmation Dose Response (48hr): Maximum inhibition (%)
[6] = DD2, 11-pt dose response, 96hr, read-out: CDD P. falciparum Luciferase ABS 11-pt Reconfirmation Dose Response (96hr): IC50
[7] = DD2, 11-pt dose response, 96hr, read-out: CDD P. falciparum Luciferase ABS 11-pt Reconfirmation Dose Response (96hr): Maximum inhibition (%)
[8] = Sybr Green I, read-out: CDD P. falciparum Sybr Green I ABS 11-pt Reconfirmation Dose Response (96hr): IC50
[9] = Sybr Green I, read-out: CDD P. falciparum Sybr Green I ABS 11-pt Reconfirmation Dose Response (96hr): Maximum inhibition (%)
[10] = DD2, read-out: P. falciparum Luciferase ABS 11-pt Reconfirmation Dose Response (48hr): IC50, 11-pt dose response, 48hr
[11] = DD2, 8-pt dose response, 96hr, read-out: P. falciparum Luciferase ABS 8-pt Reconfirmation Dose Response (96hr): IC50
[12] = DD2, 8-pt dose response, 96hr, read-out: P. falciparum Luciferase ABS 8-pt Reconfirmation Dose Response (96hr): Maximum inhibition (%)
[13] = DD2, 11-pt dose response, 96hr, read-out: P. falciparum Luciferase ABS 11-pt Reconfirmation Dose Response (96hr): IC50
[14] = DD2, 11-pt dose response, 96hr, read-out: P. falciparum Luciferase ABS 11-pt Reconfirmation Dose Response (96hr): Maximum inhibition (%)
[15] = read-out: P. falciparum Sybr Green I ABS 11-pt Reconfirmation Dose Response (96hr): IC50
[16] = read-out: P. falciparum Sybr Green I ABS 11-pt Reconfirmation Dose Response (96hr): Maximum inhibition (%)
[17] = DD2, 11-pt dose response, 48hr, read-out: P. falciparum Luciferase ABS 11-pt Reconfirmation Dose Response (48hr): Maximum inhibition (%)

SMILES | IC50 [1, 2] | IC50 [1, 3] | Emax [1, 4] | Emax [1, 5] | IC50 [1, 6] | Emax [1, 7] | IC50 (P. falciparum Dd2; [8]) | Emax (P. falciparum Dd2; [9]) | IC50 [1, 10] | IC50 [1, 11] | Emax [1, 12] | IC50 [1, 13] | Emax [1, 14] | IC50 (P. falciparum Dd2; [15]) | Emax (P. falciparum Dd2; [16]) | Emax [1, 17]
c1ccc(-c2nc3c(c(NCc4n[nH]c5c4CCC5)n2)CCNC3)cc1 [DDD01246472] | 4.12 µM | 0.92 µM | 92.6% | 97.5% | 0.635 µM | 99.5% | 2890 nM | 98.2% | – | – | – | – | – | – | – | –
COc1cc(CNCC(O)c2cccc(F)c2)cc2c1OCO2 (centres unmarked) [DDD01296688] | 3.64 µM | 0.82 µM | – | 88.9% | 1.77 µM | 98.5% | 4840 nM | 88.3% | – | – | – | – | – | – | – | –
c1cnn(C[C@@H]2C[C@@H]3CN(CC4CC4)CC[C@@H]3N2c2nccs2)c1 [DDD01081619] | – | – | – | – | – | – | – | – | 2.56 µM | 1.48 µM | 94.2% | 1.87 µM | 99.5% | 2700 nM | 73.6% | –
COCC(O)CN(C)c1ccnc2cc(Br)ccc12 (centres unmarked) [DDD01076306] | 1.81 µM | 0.99 µM | – | 97.7% | 1.51 µM | 99.9% | 2430 nM | 95.6% | – | – | – | – | – | – | – | –
Clc1ccc(C2(CNC3=NCCN3)CCCCC2)cc1 [DDD01067446] | 2.9 µM | 0.22 µM | 96.3% | 97.1% | 0.731 µM | 99.6% | 1290 nM | 99.8% | – | – | – | – | – | – | – | –
Cc1ccc(CNCc2cccc3cccnc23)c(OC2CCOC2)c1 (centres unmarked) [DDD01075119] | 3.77 µM | 0.57 µM | 83.2% | 87.5% | 1.44 µM | 98.4% | > 4160 nM | 64.7% | – | – | – | – | – | – | – | –
Cc1cc(C)n(C2CN(CC(O)c3cc(F)ccc3F)C2)n1 (centres unmarked) [DDD01298957] | 1.46 µM | 0.21 µM | 94.9% | 98.6% | 0.854 µM | 100% | 733 nM | 98.5% | – | – | – | – | – | – | – | –
NC1CCc2nc(-c3cccnc3)nc(Nc3ccc(F)cc3)c2C1 (centres unmarked) [DDD01057099] | 3.56 µM | 0.24 µM | 96.1% | 98.4% | 0.99 µM | 100% | 1310 nM | 100% | – | – | – | – | – | – | – | –
Cc1n[nH]cc1CNC1(c2ccc(F)cc2)CCCC1 [DDD01077733] | > 12.5 µM | 0.59 µM | 86.6% | 59% | 2.1 µM | 87% | > 1390 nM | 59% | – | – | – | – | – | – | – | –
Cc1cc(Cl)ccc1S(=O)(=O)NCC(C)N1CCN(C)CC1 (centres unmarked) [DDD01071406] | – | – | – | – | – | – | – | – | 6.35 µM | 1.66 µM | 87.3% | 4.93 µM | 86.6% | > 4160 nM | – | 56.6%
O=C(c1scc2c1OCCO2)N1CCOC(CCc2ccccc2)C1 (centres unmarked) [DDD01250278] | 1.39 µM | 0.55 µM | 93.1% | 97.2% | 0.767 µM | 100% | 1470 nM | 101% | – | – | – | – | – | – | – | –
O=C(C1CNCCO1)N1CCCC(c2ccccc2)(c2ccccc2)C1 (centres unmarked) [DDD01252287] | – | – | – | – | – | – | – | – | 6.95 µM | 2.21 µM | 80.7% | 2.05 µM | 83.1% | 5760 nM | 58.4% | 53.2%
COc1cccc(CNCc2cccc(Cl)c2)c1O [DDD01038248] | 4.63 µM | 0.99 µM | 92.4% | 87.8% | 1.9 µM | 98% | 2690 nM | 92.1% | – | – | – | – | – | – | – | –
Cc1cccc(CN2CCC(Cc3ccccc3F)CC2)n1 [DDD01246731] | – | – | – | – | – | – | – | – | 2.01 µM | 1.12 µM | – | 0.529 µM | 100% | 5160 nM | 92.8% | –
COc1cccc(CNC(CN2CCN(C)CC2)c2ccccc2)c1 (centres unmarked) [DDD01079897] | 2.58 µM | 0.38 µM | 91% | 83.2% | 0.79 µM | 98.1% | 1650 nM | 94.5% | – | – | – | – | – | – | – | –
O=S(=O)(NCC(c1ccsc1)N1CCCCCC1)c1cccs1 (centres unmarked) [DDD01027501] | – | – | – | – | – | – | – | – | > 12.5 µM | 1.94 µM | 83.7% | 8.75 µM | – | 7790 nM | 69.9% | 44%
CC(C)(C)CNCC1(O)CCCN(Cc2ccccc2F)C1=O (centres unmarked) [DDD01250810] | > 12.5 µM | 1.09 µM | 82.3% | 55.3% | 5.69 µM | 80.8% | 4310 nM | 64.2% | – | – | – | – | – | – | – | –
CCN(CC)Cc1ccccc1NC(=O)N(C)Cc1ccccc1O [DDD01074443] | 3.95 µM | 0.88 µM | 90% | 89.7% | 3.26 µM | 95.8% | 6280 nM | 87.8% | – | – | – | – | – | – | – | –
NC(=O)CN1CCC(Nc2ccnc3ccc(Cl)cc23)CC1 [DDD01078433] | 1.98 µM | 0.96 µM | – | 99.5% | 1.05 µM | 100% | 1020 nM | 98.2% | – | – | – | – | – | – | – | –
COCCN(C)Cc1cc(Cl)ccc1OCC(O)CN1CCCCCC1 (centres unmarked) [DDD01254091] | – | – | – | – | – | – | – | – | 3 µM | 1.11 µM | 94.7% | > 1.39 µM | 101% | 3770 nM | 91.7% | 98.3%
CC(C)[C@@H]1CN(C(=O)C2(c3ccccc3)CCN(C)CC2)C[C@H]1N(C)C [DDD01249452] | 6.23 µM | 0.83 µM | 90.5% | – | 2.18 µM | 95.6% | 3270 nM | 87.8% | – | – | – | – | – | – | – | –
Cc1cc(CN2CCc3nc(-c4ccncc4)nc(O)c3CC2)c(C)s1 [DDD01058881] | – | – | – | – | – | – | – | – | 9.43 µM | 1.72 µM | 88.5% | 2.93 µM | 93.4% | 6280 nM | 78.2% | 79%
Cc1cccc(CNC(CN2CCN(C)CC2)c2ccccc2)c1 (centres unmarked) [DDD01079901] | 2.73 µM | 0.24 µM | 91.5% | 89.2% | 0.53 µM | 99% | 449 nM | 98.3% | – | – | – | – | – | – | – | –
Fc1cnc(N2CCCC3(CCN(Cc4ccsc4)C3)C2)nc1 (centres unmarked) [DDD01085292] | 2.31 µM | 1 µM | 83.3% | 68.3% | 1.53 µM | 92.4% | > 4160 nM | 70.7% | – | – | – | – | – | – | – | –
Cc1noc(C)c1CNCc1ccccc1N(C)C1CCN(C)CC1 [DDD01074938] | > 12.5 µM | 0.59 µM | 91.9% | 61.9% | 1.55 µM | 86.7% | 2600 nM | 85.6% | – | – | – | – | – | – | – | –
CC(C)n1ccnc1C1CCCN(c2ccnc3ccccc23)C1 (centres unmarked) [DDD01257414] | 2.09 µM | 0.8 µM | 94.6% | 95.8% | 1.64 µM | 99.7% | 1940 nM | 98.5% | – | – | – | – | – | – | – | –
Oc1ccc(Cl)cc1CNCc1cccc(C(F)(F)F)c1 [DDD01038245] | > 4.16 µM | 0.82 µM | 91.9% | 64% | 10.6 µM | 79.2% | 3030 nM | 95.3% | – | – | – | – | – | – | – | –
COc1ccc(C(=O)NCCCOC(C)c2ccccc2)c(OC)c1 (centres unmarked) [DDD01071935] | 9.88 µM | 1.03 µM | – | 67.4% | 3.26 µM | 90.2% | > 4160 nM | 72.8% | – | – | – | – | – | – | – | –
CN1CCN(c2ccccc2NC(=O)NCCc2ccccc2)CC1 [DDD01076697] | – | – | – | – | – | – | – | – | > 12.5 µM | 1.14 µM | 82.8% | > 1.39 µM | 89.4% | > 12500 nM | 52.5% | 65.5%
Cc1ncc(CN(Cc2ccccn2)Cc2ccccc2Cl)n1C [DDD01058742] | 3.44 µM | 0.51 µM | 86.1% | 74% | 0.999 µM | 94.5% | 1540 nM | 67.5% | – | – | – | – | – | – | – | –
